In patent US20250352603A1, “VALERIAN COMPOSITION FOR SLEEP MANAGEMENT” (OMNIACTIVE HEALTH TECHNOLOGIES LIMITED, priority 2022, published 2025):

Experiments:
Type in all cases: in vivo, mice
[1] = test system: serum serotonin, dopamine, melatonin; assay: Serum melatonin, serotonin and dopamine by ELISA kits; settings: CM: caffeine then 2 mg/kg i.p.
Description: (§1) Working solutions of caffeine, melatonin, and valerian were prepared on a daily basis and administered intraperitoneally (i.p.). Based on the previous studies caffeine-induced insomnia is dose-dependent with 7.5 mg/kg i.p. caffeine maintaining wakefulness for at least 2 h. Electrical activity of the brain was monitored for 90 minutes following the caffeine injection and spike frequency/spike amplitude analysis was performed via the Labchart 7.3.3 program. Ninety (90) minutes after the caffeine injection, animals were deeply anesthetized with 4% isofluorane (30% O2, remainder N2O). Brains were rapidly removed, frozen on dry ice and stored at −80° C. for further analysis.
(§2) Serum melatonin, serotonin, and dopamine was measured by ELISA kits. Brain levels of MDA was measured by HPLC. Brain activities of SOD, CAT and GPHx was measured using ELISA kits.

[2] = test system: GABAAR2, GABAB R1, GABAB R2, 5-HT1A; assay: Western blot of brain GABAergic and serotonergic receptors; settings: CM: caffeine then 2 mg/kg i.p.; vs C group
Description: as §1
(§3) Protein concentrations were determined using Western blot analysis. 50 μg of protein was electrophoresed on 4-15% Tris-Glycine polyacrylamide gels and transferred to Immobilon-P PVDF membranes, blocked for 1 h in 5% skim milk and incubated overnight at 4° C. with either GABAAR2, GABAB R1, GABAB-R2, 5H-T1A, GluA1, GluN1, GluN2 A, Bcl-2, Bax, and Caspase-3. Membranes were then incubated with horseradish peroxidase (HRP) conjugated IgG secondary antibody. Bands were quantified using Image software and normalized to actin as a loading control.

[3] = test system: brain tissue MDA, SOD, CAT, GPx; assay: Brain oxidative stress markers (MDA by HPLC; SOD, CAT, GPx by ELISA kits); settings: CM: caffeine then 2 mg/kg i.p.; vs C group
Description: as §1, §2

[4] = test system: Bax, Bcl-2, Caspase-3; assay: Western blot of brain Bax, Bcl-2 and Caspase-3; settings: CM: caffeine then 2 mg/kg i.p.; vs C group
Description: as §1, §3

[5] = test system: GluA1, GluN2A, GluN1; assay: Western blot of brain glutamate receptors; settings: CM: caffeine then 2 mg/kg i.p.; vs C group
Description: as §1, §3

Compound: COc1ccc2[nH]cc(CCNC(C)=O)c2c1 [Melatonin]
- serum dopamine levels ([1]; vs C group): significant increase
- serum serotonin levels ([1]; vs C group): significant increase
- melatonin levels in serum ([1]; vs all the other groups): significantly higher
- brain 5-HT1A levels [2]: significantly increased
- brain GABAB R1 [2]: significant increase
- brain CAT [3]: significant increase
- brain GPx [3]: significant increase
- brain MDA levels [3]: significant reduction
- brain SOD [3]: significant increase
- brain Bax [4]: significant increase
- brain Bcl-2 [4]: significant decrease
- brain Caspase-3 [4]: significant increase
- brain GluA1 receptors [5]: significant increase
- brain GluN1 receptors [5]: significant increase
- brain GluN2A receptors [5]: significant increase
